Reference: patent US20250361234A1 (NICO THERAPEUTICS, INC., priority 2022, published 2025)

Molecular target: T1, full-length SARM1 (FL-SARM1) (Homo sapiens, UniProt Q6SZW1)
T1 sequence (Q6SZW1 28-724): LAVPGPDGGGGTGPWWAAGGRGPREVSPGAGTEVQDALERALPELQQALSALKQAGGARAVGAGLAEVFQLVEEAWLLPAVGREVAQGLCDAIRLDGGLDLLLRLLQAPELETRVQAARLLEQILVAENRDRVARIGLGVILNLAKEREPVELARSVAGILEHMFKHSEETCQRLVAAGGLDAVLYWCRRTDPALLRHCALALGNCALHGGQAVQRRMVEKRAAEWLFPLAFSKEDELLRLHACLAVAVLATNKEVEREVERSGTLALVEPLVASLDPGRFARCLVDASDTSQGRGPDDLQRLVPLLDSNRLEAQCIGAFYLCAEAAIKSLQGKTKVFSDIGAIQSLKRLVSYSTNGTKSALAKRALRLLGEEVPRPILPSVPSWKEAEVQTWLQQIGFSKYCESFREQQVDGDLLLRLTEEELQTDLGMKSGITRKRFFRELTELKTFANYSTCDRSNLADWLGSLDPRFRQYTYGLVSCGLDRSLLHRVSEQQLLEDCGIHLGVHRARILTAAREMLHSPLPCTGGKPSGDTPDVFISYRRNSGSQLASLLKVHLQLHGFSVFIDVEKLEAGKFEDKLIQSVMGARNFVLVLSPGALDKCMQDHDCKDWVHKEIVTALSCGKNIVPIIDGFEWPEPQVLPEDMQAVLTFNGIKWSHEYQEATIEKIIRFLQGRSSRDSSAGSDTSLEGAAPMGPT
Assay: FL-SARM1 cellular lysate assay (NAD/NADH-Glo readout of remaining NAD+)
Conditions: SARM1 cellular lysate from transfected HEK293T cells, NAD+ and NMN, 11 point curve

Compound | IC50 (Activity (μM)) | IC50 (Activity)
Cc1ccc(NC(=O)N2C[C@@H](C)CC[C@H]2C)cc1-c1cncc(F)c1 (racemic) [Example 8, cis-N-(3-(5-fluoropyridin-3-yl)-4-methylphenyl)-2,5-dimethylpiperidine-1-carboxamide] | 2.6 µM | 1 to 10 µM
Cc1ccc(NC(=O)N2C[C@@H]3C[C@H]2C[C@H]3OC(F)F)cc1-c1cncc(F)c1 (racemic) [Example 31, cis-5-(difluoromethoxy)-N-(3-(5-fluoropyridin-3-yl)-4-methylphenyl)-2-azabicyclo[2.2.1]heptane-2-carboxamide] | 28.6 µM | > 10 µM
Cc1ccc(NC(=O)N2CCCCC2C)cc1-c1cncc(F)c1 (racemic) [Example 32, N-(3-(5-fluoropyridin-3-yl)-4-methylphenyl)-2-methylpiperidine-1-carboxamide] | 1.9 µM | 1 to 10 µM
Cc1ccc(NC(=O)C2CCCN2C2CCC2)cc1-c1cncc(F)c1 (racemic) [Example 103, 1-cyclobutyl-N-[3-(5-fluoropyridin-3-yl)-4-methylphenyl]pyrrolidine-2-carboxamide] | 17.7 µM | > 10 µM
Cc1ccc(NC(=O)C2CCCN2c2ncccn2)cc1-c1cncc(F)c1 (racemic) [Example 104, N-[3-(5-fluoropyridin-3-yl)-4-methylphenyl]-1-pyrimidin-2-ylpyrrolidine-2-carboxamide] | 26.4 µM | > 10 µM
Cc1ccc(NC(=O)C2CCCN2C(=O)OC(C)(C)C)cc1-c1cncc(F)c1 (racemic) [Example 105, tert-butyl 2-[[3-(5-fluoropyridin-3-yl)-4-methylphenyl]carbamoyl]pyrrolidine-1-carboxylate] | 13.5 µM | > 10 µM
Cc1ccc(NC(=O)N2CC[C@@H](C)C[C@H]2C)cc1-c1cncc(F)c1 (racemic) [Example 119, cis-N-(3-(5-fluoropyridin-3-yl)-4-methylphenyl)-2,4-dimethylpiperidine-1-carboxamide] | 1.1 µM | 1 to 10 µM
Cc1ccc(NC(=O)N2C[C@@H]3C[C@H]2C[C@@H]3C#N)cc1-c1cncc(F)c1 (relative stereo) [Example 24, trans-5-cyano-N-(3-(5-fluoropyridin-3-yl)-4-methylphenyl)-2-azabicyclo[2.2.1]heptane-2-carboxamide] | 3.3 µM | 1 to 10 µM
COC(=O)[C@H]1C[C@@H]2C[C@H](C1)N2C(=O)Nc1ccc(C)c(-c2cncc(F)c2)c1 (single isomer, unassigned) [Example 12, trans-methyl 6-((3-(5-fluoropyridin-3-yl)-4-methylphenyl)carbamoyl)-6-azabicyclo[3.1.1]heptane-3-carboxylate] | 3.7 µM | 1 to 10 µM
COC(=O)[C@H]1CC2C[C@@H](C1)N2C(=O)Nc1ccc(C)c(-c2cncc(F)c2)c1 (single isomer, unassigned) [Example 13, cis-methyl 6-((3-(5-fluoropyridin-3-yl)-4-methylphenyl)carbamoyl)-6-azabicyclo[3.1.1]heptane-3-carboxylate] | 3.4 µM | 1 to 10 µM
Cc1ccc(NC(=O)N2C3CC2CC(C)(O)C3)cc1-c1cncc(F)c1 (single isomer, unassigned) [Example 46, N-(3-(5-fluoropyridin-3-yl)-4-methylphenyl)-3-hydroxy-3-methyl-6-azabicyclo[3.1.1]heptane-6-carboxamide] | 8.7 µM | 1 to 10 µM
C[C@@H]1CC2C[C@@H](C1)N2C(=O)Nc1ccc(C2CC2)c(-c2cncc(F)c2)c1 (single isomer, unassigned) [Example 50, trans-N-(4-cyclopropyl-3-(5-fluoropyridin-3-yl)phenyl)-3-methyl-6-azabicyclo[3.1.1]heptane-6-carboxamide] | 0.2 µM | 0.0001 to 1 µM
C[C@@H]1CC2C[C@H](C1)N2C(=O)Nc1ccc(C2CC2)c(-c2cncc(F)c2)c1 (single isomer, unassigned) [Example 51, cis-N-(4-cyclopropyl-3-(5-fluoropyridin-3-yl)phenyl)-3-methyl-6-azabicyclo[3.1.1]heptane-6-carboxamide] | 0.2 µM | 0.0001 to 1 µM
C[C@@H]1CC2C[C@@H](C1)N2C(=O)Nc1ccc(C(F)(F)F)c(-c2cncc(F)c2)c1 (single isomer, unassigned) [Example 52, trans-N-(3-(5-fluoropyridin-3-yl)-4-(trifluoromethyl)phenyl)-3-methyl-6-azabicyclo[3.1.1]heptane-6-carboxamide] | 0.08 µM | 0.0001 to 1 µM
C[C@@H]1CC2C[C@H](C1)N2C(=O)Nc1ccc(C(F)(F)F)c(-c2cncc(F)c2)c1 (single isomer, unassigned) [Example 53, cis-N-(3-(5-fluoropyridin-3-yl)-4-(trifluoromethyl)phenyl)-3-methyl-6-azabicyclo[3.1.1]heptane-6-carboxamide] | 0.06 µM | 0.0001 to 1 µM
C[C@@H]1CC2C[C@@H](C1)N2C(=O)Nc1ccc(F)c(-c2cncc(F)c2)c1 (single isomer, unassigned) [Example 57, trans-N-(4-fluoro-3-(5-fluoropyridin-3-yl)phenyl)-3-methyl-6-azabicyclo[3.1.1]heptane-6-carboxamide] | 0.3 µM | 0.0001 to 1 µM
C[C@@H]1CC2C[C@H](C1)N2C(=O)Nc1ccc(F)c(-c2cncc(F)c2)c1 (single isomer, unassigned) [Example 58, cis-N-(4-fluoro-3-(5-fluoropyridin-3-yl)phenyl)-3-methyl-6-azabicyclo[3.1.1]heptane-6-carboxamide] | 0.3 µM | 0.0001 to 1 µM
C[C@@H]1CC2C[C@@H](C1)N2C(=O)Nc1ccc(C#N)c(-c2cncc(F)c2)c1 (single isomer, unassigned) [Example 77, trans-N-(4-cyano-3-(5-fluoropyridin-3-yl)phenyl)-3-methyl-6-azabicyclo[3.1.1]heptane-6-carboxamide] | 0.4 µM | 0.0001 to 1 µM
C[C@H]1CC2C[C@@H](C1)N2C(=O)Nc1ccc(C#N)c(-c2cncc(F)c2)c1 (single isomer, unassigned) [Example 78, cis-N-(4-cyano-3-(5-fluoropyridin-3-yl)phenyl)-3-methyl-6-azabicyclo[3.1.1]heptane-6-carboxamide] | 0.1 µM | 0.0001 to 1 µM
C[C@@H]1CC2C[C@@H](C1)N2C(=O)Nc1ccc(Cl)c(-c2cncc(F)c2)c1 (single isomer, unassigned) [Example 79, trans-N-(4-chloro-3-(5-fluoropyridin-3-yl)phenyl)-3-methyl-6-azabicyclo[3.1.1]heptane-6-carboxamide] | 0.1 µM | 0.0001 to 1 µM
C[C@H]1CC2C[C@@H](C1)N2C(=O)Nc1ccc(Cl)c(-c2cncc(F)c2)c1 (single isomer, unassigned) [Example 80, cis-N-(4-chloro-3-(5-fluoropyridin-3-yl)phenyl)-3-methyl-6-azabicyclo[3.1.1]heptane-6-carboxamide] | 0.07 µM | 0.0001 to 1 µM
Cc1ccc(NC(=O)N2C3C[C@@H](C)C[C@@H]2C3)cc1-c1cncc(F)c1 (single isomer, unassigned) [Example 83, trans-N-(3-(5-fluoropyridin-3-yl)-4-methylphenyl)-3-methyl-6-azabicyclo[3.1.1]heptane-6-carboxamide] | 0.01 µM | 0.0001 to 1 µM
Cc1nnc([C@]23C[C@H](C)C[C@H](C2)N3C(=O)Nc2ccc(C(F)(F)F)c(-c3cncc(F)c3)c2)o1 (single isomer, unassigned) [Example 120, cis-N-(3-(5-fluoropyridin-3-yl)-4-(trifluoromethyl)phenyl)-3-methyl-1-(5-methyl-1,3,4-oxadiazol-2-yl)-6-azabicyclo[3.1.1]heptane-6-carboxamide] | > 50 µM | > 10 µM
Cc1nnc([C@]23C[C@H](C)C[C@H](C2)N3C(=O)Nc2ccc(C(F)(F)F)c(-c3cncc(F)c3)c2)o1 (single isomer, unassigned) [Example 121, cis-N-(3-(5-fluoropyridin-3-yl)-4-(trifluoromethyl)phenyl)-3-methyl-1-(5-methyl-1,3,4-oxadiazol-2-yl)-6-azabicyclo[3.1.1]heptane-6-carboxamide] | 0.034 µM | 0.0001 to 1 µM
COc1cncc(-c2cc(NC(=O)N3[C@@H]4C[C@@H](C)C[C@@]3(c3nnc(C)o3)C4)c(F)cc2C(F)(F)F)c1 (single isomer, unassigned) [Example 122, cis-N-(2-fluoro-5-(5-methoxypyridin-3-yl)-4-(trifluoromethyl)phenyl)-3-methyl-1-(5-methyl-1,3,4-oxadiazol-2-yl)-6-azabicyclo[3.1.1]heptane-6-carboxamide] | 10.7 µM | > 10 µM
